Measurements published in patent publication US10954237B2, “JAK inhibitors containing a 4-membered heterocyclic amide” (THERAVANCE BIOPHARMA R&D IP, LLC, priority 2017, dated 2021).

What was measured:
[1] = test system: IL-5 mediated survival of human eosinophils; assay: IL-5 mediated eosinophil survival assay; type: cell-based
Experimental: The potency of the test compound for IL-5 mediated eosinophil survival was measured in human eosinophils isolated from human whole blood (AllCells). Because IL-5 signals through JAK, this assay provides a measure of JAK cellular potency.
Human eosinophils were isolated from fresh human whole blood (AllCells) of healthy donors. Blood was mixed with 4.5% Dextran (Sigma-Aldrich) in a 0.9% sodium chloride solution (Sigma-Aldrich). Red blood cells were left to sediment for 35 minutes. The leukocyte rich upper layer was removed and layered over Ficoll-Paque (GE Healthcare) and centrifuged at 600 g for 30 minutes. The plasma and mononuclear cell layers were removed before the granulocyte layer was lysed with water to remove any contaminating red blood cells. […] Purity was analyzed using a LSRII flow cytometer (BD Biosciences). […]
After cytokine stimulation, cells were centrifuged at 300 g for 5 min and washed twice with cold DPBS (Life Technologies). To access viability and apoptosis, cells were incubated with Propidium Iodide (Thermo Fisher Scientific) and APC Annexin V (BD Biosciences) and analyzed using a LSRII flow cytometer (BD Biosciences). IC50 values were determined from analysis of the viability curves of percent cell viability vs compound concentration. Data are expressed as pIC50 (negative decadic logarithm IC50) values.

[2] = test system: IFNγ induced CXCL10 secretion; assay: IFNγ induced CXCL10 in human 3D airway cultures; type: cell-based
Experimental: EpiAirway tissue cultures were obtained from Mattek (AIR-100). Cultures were derived from asthmatic donors. In a cell culture insert, human derived tracheal/bronchial epithelial cells were grown and differentiated on a porous membrane support, allowing an air-liquid interface with warmed culture medium below the cells and a gaseous test atmosphere above. Tissues were cultured in maintenance media (Mattek, AIR-100-MM) in a 37° C., 5% CO2 humidified incubator. Four donors were tested. On Day 0, tissue cultures were treated with test compounds at 10 μM, 1 μM and/or 0.1 μM. Compounds were diluted in dimethyl sulfoxide (DMSO, Sigma) to a final concentration of 0.1%. DMSO at 0.1% was used as a vehicle control. Test compounds were incubated with cultures for 1 hour at 37° C., 5% CO2, followed by the addition of pre-warmed media containing IFNγ (R&D Systems) or IL-27 (R&D Systems) at a final concentration at 100 ng/ml. Tissue cultures were maintained for 8 days. Media was replaced every 2 days with fresh media containing compounds and IFNγ or IL-27. On Day 8, tissue cultures and supernatants were collected for analysis. […] Data is expressed as % Inhibition+/−standard deviation (±STDV). Percent inhibition was determined by compound inhibitory potency against IFNγ or IL-27 induced CXCL10 or CXCL9 secretion compared to vehicle treated cells. […]

[3] = test system: IL-6 stimulated STAT3 phosphorylation in CD3+ T cells; assay: Inhibition of IL-6 stimulated pSTAT3 in CD3+ T cells; type: cell-based, human
Description: A protocol analogous to that of Assay 10 was used to determine the potency of the test compound for inhibition of interleuken-6 (IL-6) stimulated STAT3 phosphorylation. An Alexa Fluor 647 conjugated anti-pSTAT3 antibody (pY705, Clone 4/P, BD Biosciences) was used to detect STAT3 phosphorylation.

[4] = test system: IL-2/anti-CD3 stimulated IFNγ in human PBMCs; assay: Inhibition of IL-2/anti-CD3 stimulated IFNγ in human PBMCs; type: cell-based
Experimental: The potency of the test compound for inhibition of interleukin-2 (IL-2)/anti-CD3 stimulated interferon gamma (IFNγ) was measured in human peripheral blood mononuclear cells (PBMCs) isolated from human whole blood (Stanford Blood Center). Because IL-2 signals through JAK, this assay provides a measure of JAK cellular potency.
(1) Human peripheral blood mononuclear cells (PBMC) were isolated from human whole blood of healthy donors using a ficoll gradient. Cells were cultured in a 37° C., 5% CO2 humidified incubator in RPMI (Life Technologies) supplemented with 10% Heat Inactivated Fetal Bovine Serum (FBS, Life Technologies), 2 mM Glutamax (Life Technologies), 25 mM HEPES (Life Technologies) and 1× Pen/Strep (Life Technologies). Cells were seeded at 200,000 cells/well in media (50 μL) and cultured for 1 h. Compounds were serially diluted in DMSO and then diluted another 500-fold (to a 2× final assay concentration) in media. […]
(2) After cytokine stimulation, cells were centrifuged at 500 g for 5 min and supernatants removed and frozen at −80° C. To determine the inhibitory potency of the test compound in response to IL-2/anti-CD3, supernatant IFNγ concentrations were measured via ELISA (R&D Systems). IC50 values were determined from analysis of the inhibition curves of concentration of IFNγ vs compound concentration. Data are expressed as pIC50 (negative decadic logarithm IC50) values.

[5] = Pharmacokinetics in plasma and lung in mouse; type: in vivo; conditions: oral aspiration, lung AUC / plasma AUC

Lung to Plasma ratio Assay 3 [5]	Structure (SMILES)	IL-5 mediated human eosinophil survival (in words) [1]	inhibition at 10 µM [2]	IL-6 signaling (in words) [3]	anti-CD3 and IL-2 induced release of IFNγ from activated human peripheral blood-isolated T cells (in words) [4]
	CCc1cc(O)c(F)cc1-c1ccc2c(-c3nc4c([nH]3)CN(C(C)C)[C@H](C(=O)N3CC(N(C)C)C3)C4)n[nH]c2c1 [Example 2, (S)-(3-(dimethylamino)azetidin-1-yl)(2-(6-(2-ethyl-5-fluoro-4-hydroxyphenyl)-1H-indazol-3-yl)-5-isopropyl-4,5,6,7-tetrahydro-3H-imidazo[4,5-c]pyridin-6-yl)methanone]	potently inhibit	101%	inhibit	inhibit
C (C denotes a ratio between 20 and 50)	CCCN1Cc2[nH]c(-c3n[nH]c4cc(-c5cc(F)c(O)cc5CC)ccc34)nc2C[C@H]1C(=O)N1CC(N(C)C)C1 [Example 4, (S)-(3-(dimethylamino)azetidin-1-yl)(2-(6-(2-ethyl-5-fluoro-4-hydroxyphenyl)-1H-indazol-3-yl)-5-propyl-4,5,6,7-tetrahydro-3H-imidazo[4,5-c]pyridin-6-yl)methanone]				
